Test results reported in US9850203B2, “Autotaxin inhibitor compounds” (PharmAkea, Inc., priority 2013, dated 2017).

Biological target: human autotaxin (ATX) (Homo sapiens (Human), UniProt Q13822)
Assay: Human Autotaxin Assay
Format: biochemical
Details: concentrated conditioned media from Hep3B cells; LPC substrate, choline release
Description: ATX activity is assayed in concentrated conditioned media from Hep3B human hepatocellular carcinoma cells by measuring the amount of choline released from the substrate, lysophosphatidylcholine (LPC) as it is cleaved to LPA. Conditioned media is collected from confluent Hep3B cells and concentrated 20-fold using Centriprep-30 filter devices (Millipore). To assay for autotaxin inhibition, 10-20 μL of the concentrated conditioned media is incubated with 2.5 μL of a test compound in DMSO and 72.5-82.5 μL lyso-PLD buffer (100 mM Tris pH 9, 500 mM NaCl, 5 mM MgCl2, 5 mM CaCl2, 0.05% Triton X-100 in the presence or absence of 0.2% fatty-acid-free human serum albumin) for 15 min at 37° C. After the 15 min incubation, 5 uL of 2 mM LPC (14:0; Avanti Polar Lipids Cat#855575C) diluted in lyso-PLD buffer is added for a final concentration of 100 uM and the incubation continues for 1.5-3 hours at 37° C.

Compound | IC50
Cc1c(Sc2cccc(C(=O)O)c2)c2ccc(Cl)c(F)c2n1CC(=O)N1CCC(CCn2cccn2)CC1 [Compound 1-61, 3-((1-(2-(4-(2-(1H-Pyrazol-1-yl)ethyl)piperidin-1-yl)-2-oxoethyl)-6-chloro-7-fluoro-2-methyl-1H-indol-3-yl)thio)benzoic acid] | ≤ 500 nM
Cc1c(Sc2cccc(C(=O)O)c2)c2ccc(Cl)c(F)c2n1CC(=O)N1CCC(CCc2ccccc2)CC1 [Compound 1-62, 3-((6-Chloro-7-fluoro-2-methyl-1-(2-oxo-2-(4-phenethylpiperidin-1-yl)ethyl)-1H-indol-3-yl)thio)benzoic acid] | 500 to 3000 nM
Cc1c(Sc2cccc(C(=O)O)c2)c2ccc(Cl)c(F)c2n1CC(=O)N1CCC(Cc2ccncc2)CC1 [Compound 1-63, 3-((6-Chloro-7-fluoro-2-methyl-1-(2-oxo-2-(4-(pyridin-4-ylmethyl)piperidin-1-yl)ethyl)-1H-indol-3-yl)thio)benzoic acid] | ≤ 500 nM
Cc1c(Sc2cccc(C(=O)O)c2)c2ccc(Cl)c(F)c2n1CC(=O)N1CCC2(CCN(Cc3ccccc3)CC2)C1 [Compound 1-67, 3-((1-(2-(8-Benzyl-2,8-diazaspiro[4.5]decan-2-yl)-2-oxoethyl)-6-chloro-7-fluoro-2-methyl-1H-indol-3-yl)thio)benzoic acid] | 500 to 3000 nM
Cc1c(Sc2cccc(C(=O)O)c2)c2ccc(Cl)c(F)c2n1CC(=O)N1CCCC2(CNC(=O)O2)C1 (centres unmarked) [Compound 1-69, 3-((6-Chloro-7-fluoro-2-methyl-1-(2-oxo-2-(2-oxo-1-oxa-3,7-diazaspiro[4.5]decan-7-yl)ethyl)-1H-indol-3-yl)thio)benzoic acid] | ≤ 500 nM
Cc1c(Sc2cccc(C(=O)O)c2)c2ccc(Cl)c(F)c2n1CC(=O)N1CCc2c(F)cc(F)cc21 [Compound 1-70, 3-((6-Chloro-1-(2-(4,6-difluoroindolin-1-yl)-2-oxoethyl)-7-fluoro-2-methyl-1H-indol-3-yl)thio)benzoic acid] | ≤ 500 nM
Cc1c(Sc2cccc(C(=O)O)c2)c2ccc(Cl)c(F)c2n1CC(=O)N1CCc2cc(Cl)ccc21 [Compound 1-71, 3-((6-Chloro-1-(2-(5-chloroindolin-1-yl)-2-oxoethyl)-7-fluoro-2-methyl-1H-indol-3-yl)thio)benzoic acid] | ≤ 500 nM
Cc1c(Sc2cccc(C(=O)O)c2)c2ccc(Cl)c(F)c2n1CC(=O)N1CCc2cccnc21 [Compound 1-72, 3-((6-Chloro-1-(2-(2,3-dihydro-1H-pyrrolo[2,3-b]pyridin-1-yl)-2-oxoethyl)-7-fluoro-2-methyl-1H-indol-3-yl)thio)benzoic acid] | 500 to 3000 nM
Cc1c(Sc2cccc(C(=O)O)c2)c2ccc(Cl)c(F)c2n1CC(=O)N1CCc2ccc(Cl)cc21 [Compound 1-73, 3-((6-Chloro-1-(2-(6-chloroindolin-1-yl)-2-oxoethyl)-7-fluoro-2-methyl-1H-indol-3-yl)thio)benzoic acid] | ≤ 500 nM
Cc1c(Sc2cccc(C(=O)O)c2)c2ccc(Cl)c(F)c2n1CC(=O)N1CCC(CCc2ccccc2)C1 (centres unmarked) [Compound 1-76, 3-((6-Chloro-7-fluoro-2-methyl-1-(2-oxo-2-(3-phenethylpyrrolidin-1-yl)ethyl)-1H-indol-3-yl)thio)benzoic acid] | 500 to 3000 nM
CCCC1CCN(C(=O)Cn2c(C)c(Sc3cccc(C(=O)O)c3)c3ccc(Cl)c(F)c32)C1 (centres unmarked) [Compound 1-77, 3-((6-Chloro-7-fluoro-2-methyl-1-(2-oxo-2-(3-propylpyrrolidin-1-yl)ethyl)-1H-indol-3-yl)thio)benzoic acid] | ≤ 500 nM
Cc1c(Sc2cccc(C(=O)O)c2)c2ccc(Cl)c(F)c2n1CC(=O)N1CCC(Cc2ccc(C(F)(F)F)cc2)C1 (centres unmarked) [Compound 1-78, 3-((6-Chloro-7-fluoro-2-methyl-1-(2-oxo-2-(3-(4-(trifluoromethyl)benzyl)pyrrolidin-1-yl)ethyl)-1H-indol-3-yl)thio)benzoic acid] | 500 to 3000 nM
Cc1c(Sc2cccc(C(=O)O)c2)c2ccc(Cl)c(F)c2n1CC(=O)N1CCc2ccccc2C1 [Compound 1-79, 3-((6-Chloro-1-(2-(3,4-dihydroisoquinolin-2(1H)-yl)-2-oxoethyl)-7-fluoro-2-methyl-1H-indol-3-yl)thio)benzoic acid] | ≤ 500 nM

The remaining lines, values ahead:

IC50 | Compound
≤ 500 nM | Cc1c(Sc2cccc(C(=O)O)c2)c2ccc(Cl)c(F)c2n1CC(=O)N1CC(O)(C2CC2)C1 [Compound 1-82, 3-((6-Chloro-1-(2-(3-cyclopropyl-3-hydroxyazetidin-1-yl)-2-oxoethyl)-7-fluoro-2-methyl-1H-indol-3-yl)thio)benzoic acid]
≤ 500 nM | Cc1c(Sc2cccc(C(=O)O)c2)c2ccc(Cl)c(F)c2n1CC(=O)N1CCCC(O)(C(F)(F)F)C1 (centres unmarked) [Compound 1-83, 3-((6-Chloro-7-fluoro-1-(2-(3-hydroxy-3-(trifluoromethyl)piperidin-1-yl)-2-oxoethyl)-2-methyl-1H-indol-3-yl)thio)benzoic acid]
≤ 500 nM | Cc1c(Sc2cccc(C(=O)O)c2)c2ccc(Cl)c(F)c2n1CC(=O)N1CC(O)(C(F)(F)F)C1 [Compound 1-84, 3-((6-Chloro-7-fluoro-1-(2-(3-hydroxy-3-(trifluoromethyl)azetidin-1-yl)-2-oxoethyl)-2-methyl-1H-indol-3-yl)thio)benzoic acid]
≤ 500 nM | Cc1c(Sc2cccc(C(=O)O)c2)c2ccc(Cl)c(F)c2n1CC(=O)N1CCCC1c1cnn(C)c1 (centres unmarked) [Compound 1-85, 3-((6-Chloro-7-fluoro-2-methyl-1-(2-(2-(1-methyl-1H-pyrazol-4-yl)pyrrolidin-1-yl)-2-oxoethyl)-1H-indol-3-yl)thio)benzoic acid]
≤ 500 nM | Cc1c(Sc2cccc(C(=O)O)c2)c2ccc(Cl)c(F)c2n1CC(=O)N1CC(n2cccn2)C1 [Compound 1-86, 3-((1-(2-(3-(1H-Pyrazol-1-yl)azetidin-1-yl)-2-oxoethyl)-6-chloro-7-fluoro-2-methyl-1H-indol-3-yl)thio)benzoic acid]
≤ 500 nM | Cc1c(Sc2cccc(C(=O)O)c2)c2ccc(Cl)c(F)c2n1CC(=O)N1CCC12CCN(C)CC2 [Compound 1-87, 3-((6-Chloro-7-fluoro-2-methyl-1-(2-(7-methyl-1,7-diazaspiro[3.5]nonan-1-yl)-2-oxoethyl)-1H-indol-3-yl)thio)benzoic acid]
≤ 500 nM | Cc1c(Sc2cccc(C(=O)O)c2)c2ccc(Cl)c(F)c2n1CC(=O)N1CCC(Cc2ccncc2)C1 (centres unmarked) [Compound 1-88, 3-((6-Chloro-7-fluoro-2-methyl-1-(2-oxo-2-(3-(pyridin-4-ylmethyl)pyrrolidin-1-yl)ethyl)-1H-indol-3-yl)thio)benzoic acid]
≤ 500 nM | Cc1c(Sc2cccc(C(=O)O)c2)c2ccc(Cl)c(F)c2n1CC(=O)N1CCC(c2ccncc2)C1 (centres unmarked) [Compound 1-89, 3-((6-Chloro-7-fluoro-2-methyl-1-(2-oxo-2-(3-(pyridin-4-yl)pyrrolidin-1-yl)ethyl)-1H-indol-3-yl)thio)benzoic acid]
≤ 500 nM | Cc1c(Sc2cccc(C(=O)O)c2)c2ccc(Cl)c(F)c2n1CC(=O)N1CCC(O)C1 (centres unmarked) [Compound 1-90, 3-((6-Chloro-7-fluoro-1-(2-(3-hydroxypyrrolidin-1-yl)-2-oxoethyl)-2-methyl-1H-indol-3-yl)thio)benzoic acid]
≤ 500 nM | Cc1c(Sc2cccc(C(=O)O)c2)c2ccc(Cl)c(F)c2n1CC(=O)N1Cc2ccccc2C1 [Compound 1-91, 3-((6-Chloro-7-fluoro-1-(2-(isoindolin-2-yl)-2-oxoethyl)-2-methyl-1H-indol-3-yl)thio)benzoic acid]
